Assay results taken from EP0105872B1, “NOVEL COSMETIC COMPOSITIONS CONTAINING PRENYLAMINE AND A PROCESS FOR THEIR PREPARATION” (CAOLA KOZMETIKAI ES HAZTARTÄSVEGYIPARI VALLALAT, priority 1982, dated 1983).
Converted amounts (≈) assume the structure as drawn.

Experiments:
[1] = tested on: Gram-positive; conditions: cited from earlier work
[2] = tested on: Gram-negative; conditions: cited from earlier work
[3] = tested on: Yeast; conditions: cited from earlier work
[4] = tested on: Fungi; conditions: cited from earlier work
[5] = tested on: Staphylococcus aureus; test: Minimum inhibition concentration of prenilamine; format: cell-based
[6] = tested on: Staphylococcus epidermis; test: Minimum inhibition concentration of prenilamine; format: cell-based
[7] = tested on: Streptococcus haemolyticus; test: Minimum inhibition concentration of prenilamine; format: cell-based
[8] = tested on: Streptococcus mitis; test: Minimum inhibition concentration of prenilamine; format: cell-based
[9] = tested on: Streptococcus pneumoniae; test: Minimum inhibition concentration of prenilamine; format: cell-based
[10] = tested on: Streptococcus mutans; test: Minimum inhibition concentration of prenilamine; format: cell-based
[11] = tested on: Lactobacillus acidophilus; test: Minimum inhibition concentration of prenilamine; format: cell-based
[12] = tested on: Corynebacterium diphtherise; test: Minimum inhibition concentration of prenilamine; format: cell-based
[13] = tested on: Listeria monocytogenes; test: Minimum inhibition concentration of prenilamine; format: cell-based
[14] = tested on: Haemophilus influensae; test: Minimum inhibition concentration of prenilamine; format: cell-based
[15] = tested on: Neisseria pharingis; test: Minimum inhibition concentration of prenilamine; format: cell-based
[16] = tested on: Candida albicans; test: Minimum inhibition concentration of prenilamine; format: cell-based
[17] = Solubility in water; format: physicochemical

In the case of O=C(OCc1ccccc1)c1ccc(O)cc1 [Benzyl paraben], the “Minimum Inhibition Concentration” value [1] is listed as 50 µg/mL, the “Minimum Inhibition Concentration” value [2] is listed as 200 µg/mL and the “Minimum Inhibition Concentration” value [3] is listed as 100 µg/mL. The “Minimum Inhibition Concentration” value [4] was 75 µg/mL.
In the case of CC(Cc1ccccc1)NCCC(c1ccccc1)c1ccccc1 (stereo not shown) [prenilamine, 3,3-diphenylpropyl-1-methylphenethylamine], the MIC [5] is reported as 30 µg/mL (≈ 91.1 µM), the Nature of effect [5] is reported as “bactericide” and the MIC [6] is reported as 30 µg/mL (≈ 91.1 µM). The Nature of effect [6] was “bactericide”, the MIC [7] was 5 µg/mL (≈ 15.2 µM) and the Nature of effect [7] was “bactericide”. The MIC [8] was 5 µg/mL (≈ 15.2 µM), the Nature of effect [8] was “bactericide” and the MIC [9] was 30 µg/mL (≈ 91.1 µM). For the same compound, the Nature of effect [9] was “bactericide”, the MIC [10] was 5 µg/mL (≈ 15.2 µM) and the Nature of effect [10] was “bactericide”. The MIC [11] was 5 µg/mL (≈ 15.2 µM), the Nature of effect [11] was “bactericide” and the MIC [12] was 10 µg/mL (≈ 30.4 µM). The Nature of effect [12] was “bactericide”, the MIC [13] was 10 µg/mL (≈ 30.4 µM) and the Nature of effect [13] was “bactericide”. For the same compound, the MIC [14] was 60 µg/mL (≈ 182 µM), the Nature of effect [14] was “bactericide” and the MIC [15] was 20 µg/mL (≈ 60.7 µM). The Nature of effect [15] was “bactericide”, the MIC [16] was 100 µg/mL (≈ 304 µM) and the Nature of effect [16] was “fungicide”. The solubility in water [17] was “do not dissolve well in water”.
For COC(=O)c1ccc(O)cc1 [Methyl paraben, p-hydroxybenzoic acid methylester], the “Minimum Inhibition Concentration” value [1] is listed as 800 µg/mL, the “Minimum Inhibition Concentration” value [2] is listed as 1000 µg/mL and the “Minimum Inhibition Concentration” value [3] is listed as 1000 µg/mL. The “Minimum Inhibition Concentration” value [4] was 500 µg/mL.
For Oc1c(Cl)cc(Cl)c(Cl)c1Cc1c(O)c(Cl)cc(Cl)c1Cl [Hexachlorophene, 3,3',4,4',6,6'-hexachloro-2,2'-methylene-diphenoi], the “Minimum Inhibition Concentration” value [1] is listed as 1—10 µg/ml.
